Activity calls are given as the source filed them. The rule behind the calls is not given here.
Legend:
[1] = target: NACHT, LRR and PYD domains-containing protein 3 (Mus musculus, UniProt Q8R4B8); assay: Inhibition of NLRP3 inflammasome in C57BL/6J mouse whole blood assessed as reduction in LPS/ATP induced IL-1beta secretion preincubated for 60 mins followed by LPS addition for 4 hrs prior to ATP addition for 30 mins by HTRF method; format: tissue-based
[2] = target: NACHT, LRR and PYD domains-containing protein 3 (Mus musculus) (UniProt Q8R4B8); assay: In vivo inhibition of NLRP3 in LPS/ATP-induced C57BL/6JRi mouse peritonitis model assessed as reduction in IL-1beta level at 3 mg/kg, po preadministered with compound for 3 hrs followed by LPS stimulation for 2 hrs and measured 15 mins after ATP addition; format: functional, organism-based; settings: time 315.0 min
Chain of NACHT, LRR and PYD domains-containing protein 3 (Mus musculus) (Q8R4B8 whole entry, the tested form may be a part): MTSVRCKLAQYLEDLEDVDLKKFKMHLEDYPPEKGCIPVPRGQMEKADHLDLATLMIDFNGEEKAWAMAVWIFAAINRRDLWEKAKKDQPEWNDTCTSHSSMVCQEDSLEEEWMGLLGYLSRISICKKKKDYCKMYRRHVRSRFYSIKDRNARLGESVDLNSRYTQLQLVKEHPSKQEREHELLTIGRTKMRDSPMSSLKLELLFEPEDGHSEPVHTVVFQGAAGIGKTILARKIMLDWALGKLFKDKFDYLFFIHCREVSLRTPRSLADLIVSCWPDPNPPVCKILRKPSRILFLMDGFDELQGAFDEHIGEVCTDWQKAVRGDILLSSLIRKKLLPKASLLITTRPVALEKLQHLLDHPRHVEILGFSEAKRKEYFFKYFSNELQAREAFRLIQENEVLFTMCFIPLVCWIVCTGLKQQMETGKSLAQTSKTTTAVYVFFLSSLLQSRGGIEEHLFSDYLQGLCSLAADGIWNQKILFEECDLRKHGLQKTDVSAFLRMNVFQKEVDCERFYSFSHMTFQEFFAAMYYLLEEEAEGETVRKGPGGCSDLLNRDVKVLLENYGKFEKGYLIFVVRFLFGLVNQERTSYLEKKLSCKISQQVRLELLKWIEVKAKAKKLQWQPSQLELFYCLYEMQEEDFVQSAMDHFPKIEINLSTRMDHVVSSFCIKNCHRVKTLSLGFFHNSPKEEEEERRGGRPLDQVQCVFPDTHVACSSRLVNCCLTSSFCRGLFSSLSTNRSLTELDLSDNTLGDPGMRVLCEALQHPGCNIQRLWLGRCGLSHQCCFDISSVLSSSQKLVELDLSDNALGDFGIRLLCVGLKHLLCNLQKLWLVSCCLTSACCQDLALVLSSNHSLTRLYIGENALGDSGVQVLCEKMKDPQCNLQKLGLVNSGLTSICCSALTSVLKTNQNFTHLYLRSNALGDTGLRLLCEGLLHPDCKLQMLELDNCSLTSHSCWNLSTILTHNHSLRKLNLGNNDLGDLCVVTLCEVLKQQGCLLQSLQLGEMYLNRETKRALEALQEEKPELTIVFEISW

[3] = target: NACHT, LRR and PYD domains-containing protein 3 (Mus musculus) (UniProt Q8R4B8); assay: In vivo inhibition of NLRP3 in LPS-induced C57BL/6JRi mouse neuroinflammation model assessed as reduction in blood IL-1beta level at 0.2 mg/kg, po pretreated with LPS for 23 hrs followed by compound addition for 1 hr prior to second dose of LPS addition and measured after 4 hrs; format: functional, organism-based; settings: time 5.0 hrs
[4] = target: NACHT, LRR and PYD domains-containing protein 3 (Mus musculus) (UniProt Q8R4B8); assay: In vivo inhibition of NLRP3 in LPS-induced C57BL/6JRi mouse neuroinflammation model assessed as reduction in IL-1beta level in CSF at 0.02 mg/kg, po pretreated with LPS for 23 hrs followed by compound addition for 1 hr prior to second dose of LPS addition and measured after 4 hrs; format: functional, organism-based; settings: time 5.0 hrs
[5] = target: NACHT, LRR and PYD domains-containing protein 3 (Mus musculus) (UniProt Q8R4B8); assay: In vivo inhibition of NLRP3 in LPS-induced C57BL/6JRi mouse neuroinflammation model assessed as reduction in blood IL-1beta level at 2 mg/kg, po pretreated with LPS for 23 hrs followed by compound addition for 1 hr prior to second dose of LPS addition and measured after 4 hrs; format: functional, organism-based; settings: time 5.0 hrs
[6] = target: NACHT, LRR and PYD domains-containing protein 3 (Mus musculus) (UniProt Q8R4B8); assay: In vivo inhibition of NLRP3 in LPS-induced C57BL/6JRi mouse neuroinflammation model assessed as reduction in blood IL-1beta level at 0.02 mg/kg, po pretreated with LPS for 23 hrs followed by compound addition for 1 hr prior to second dose of LPS addition and measured after 4 hrs; format: functional, organism-based; settings: time 5.0 hrs
[7] = target: NACHT, LRR and PYD domains-containing protein 3 (Mus musculus) (UniProt Q8R4B8); assay: In vivo inhibition of NLRP3 in LPS/ATP-induced C57BL/6JRi mouse peritonitis model assessed as reduction in IL-1beta level at 0.0083 mg/kg, po preadministered with compound for 3 hrs followed by LPS stimulation for 2 hrs and measured 15 mins after ATP addition; format: functional, organism-based; settings: time 315.0 min
[8] = target: NACHT, LRR and PYD domains-containing protein 3 (Mus musculus) (UniProt Q8R4B8); assay: In vivo inhibition of NLRP3 in LPS/ATP-induced C57BL/6JRi mouse peritonitis model assessed as reduction in IL-1beta level at 0.05 mg/kg, po preadministered with compound for 3 hrs followed by LPS stimulation for 2 hrs and measured 15 mins after ATP addition; format: functional, organism-based; settings: time 315.0 min
[9] = target: Sodium-dependent serotonin transporter (Homo sapiens) (UniProt P31645); assay: Binding affinity to 5HTT (unknown origin)
Chain of Sodium-dependent serotonin transporter (Homo sapiens) (P31645 whole entry, looked up, the tested form may be a part): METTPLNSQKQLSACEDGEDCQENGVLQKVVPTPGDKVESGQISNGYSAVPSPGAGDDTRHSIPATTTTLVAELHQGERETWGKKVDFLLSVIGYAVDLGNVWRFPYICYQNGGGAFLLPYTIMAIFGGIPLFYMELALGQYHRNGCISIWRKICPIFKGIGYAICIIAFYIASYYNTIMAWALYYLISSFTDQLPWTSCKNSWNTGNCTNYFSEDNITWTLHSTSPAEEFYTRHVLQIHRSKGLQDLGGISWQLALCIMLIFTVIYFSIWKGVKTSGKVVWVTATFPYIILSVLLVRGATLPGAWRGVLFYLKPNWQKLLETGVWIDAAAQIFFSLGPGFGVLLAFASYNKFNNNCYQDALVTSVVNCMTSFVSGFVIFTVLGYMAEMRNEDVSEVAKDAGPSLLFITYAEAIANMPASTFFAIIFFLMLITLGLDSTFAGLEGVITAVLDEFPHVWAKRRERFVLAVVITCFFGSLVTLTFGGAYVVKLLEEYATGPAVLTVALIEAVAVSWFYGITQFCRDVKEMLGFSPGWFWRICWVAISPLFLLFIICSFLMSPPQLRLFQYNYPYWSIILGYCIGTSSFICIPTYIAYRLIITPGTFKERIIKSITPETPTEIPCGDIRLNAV

[10] = target: NACHT, LRR and PYD domains-containing protein 3 (Mus musculus) (UniProt Q8R4B8); assay: In vivo inhibition of NLRP3 in LPS/ATP-induced C57BL/6JRi mouse peritonitis model assessed as reduction in IL-1beta level at 0.3 mg/kg, po preadministered with compound for 3 hrs followed by LPS stimulation for 2 hrs and measured 15 mins after ATP addition; format: functional, organism-based; settings: time 315.0 min
[11] = target: NACHT, LRR and PYD domains-containing protein 3 (Mus musculus) (UniProt Q8R4B8); assay: In vivo inhibition of NLRP3 in LPS/ATP-induced C57BL/6JRi mouse peritonitis model assessed as reduction in IL-1beta level at 2 mg/kg, po preadministered with compound for 3 hrs followed by LPS stimulation for 2 hrs and measured 15 mins after ATP addition; format: functional, organism-based; settings: time 315.0 min
[12] = target: NLR family CARD domain-containing protein 4 (Homo sapiens) (UniProt Q9NPP4); assay: Inhibition of NLRC4 activation overexpressed in human THP-1 cells assessed as reduction in IL-1beta secretion preincubated for 1 hr followed by PrgI protein addition and measured after 20 hrs; format: cell-based
Chain of NLR family CARD domain-containing protein 4 (Homo sapiens) (Q9NPP4 whole entry, the tested form may be a part): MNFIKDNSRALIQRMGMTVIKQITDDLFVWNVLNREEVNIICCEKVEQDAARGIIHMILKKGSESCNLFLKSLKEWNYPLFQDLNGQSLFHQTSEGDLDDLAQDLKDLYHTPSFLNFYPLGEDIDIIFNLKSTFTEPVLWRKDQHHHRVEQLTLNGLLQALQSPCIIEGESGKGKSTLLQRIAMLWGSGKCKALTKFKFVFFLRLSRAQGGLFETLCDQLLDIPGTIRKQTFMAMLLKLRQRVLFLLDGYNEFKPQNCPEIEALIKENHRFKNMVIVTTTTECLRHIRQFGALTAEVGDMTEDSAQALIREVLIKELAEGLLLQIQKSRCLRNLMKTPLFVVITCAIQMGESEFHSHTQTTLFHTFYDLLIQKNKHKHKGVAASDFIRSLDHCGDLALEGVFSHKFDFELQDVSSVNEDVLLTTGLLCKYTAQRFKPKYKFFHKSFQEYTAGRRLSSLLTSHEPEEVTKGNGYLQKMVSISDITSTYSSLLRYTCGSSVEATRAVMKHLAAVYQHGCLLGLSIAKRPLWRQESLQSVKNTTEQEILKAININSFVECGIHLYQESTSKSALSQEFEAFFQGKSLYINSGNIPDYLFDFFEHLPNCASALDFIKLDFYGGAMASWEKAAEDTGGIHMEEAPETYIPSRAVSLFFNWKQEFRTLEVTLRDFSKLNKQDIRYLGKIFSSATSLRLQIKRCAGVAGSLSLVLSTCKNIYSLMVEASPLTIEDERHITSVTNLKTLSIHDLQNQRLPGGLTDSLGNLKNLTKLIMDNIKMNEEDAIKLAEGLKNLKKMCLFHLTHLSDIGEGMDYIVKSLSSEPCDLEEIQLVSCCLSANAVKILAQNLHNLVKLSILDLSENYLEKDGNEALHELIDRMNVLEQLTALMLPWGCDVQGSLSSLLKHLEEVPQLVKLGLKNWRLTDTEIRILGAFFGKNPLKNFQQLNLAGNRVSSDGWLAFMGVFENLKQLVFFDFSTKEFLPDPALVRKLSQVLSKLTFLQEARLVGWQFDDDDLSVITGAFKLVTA

[13] = target: T1, Muscarinic acetylcholine receptor M2 (Homo sapiens) (UniProt P08172); assay: Binding affinity to M2 muscarinic receptor (unknown origin)
T1 sequence (whole entry): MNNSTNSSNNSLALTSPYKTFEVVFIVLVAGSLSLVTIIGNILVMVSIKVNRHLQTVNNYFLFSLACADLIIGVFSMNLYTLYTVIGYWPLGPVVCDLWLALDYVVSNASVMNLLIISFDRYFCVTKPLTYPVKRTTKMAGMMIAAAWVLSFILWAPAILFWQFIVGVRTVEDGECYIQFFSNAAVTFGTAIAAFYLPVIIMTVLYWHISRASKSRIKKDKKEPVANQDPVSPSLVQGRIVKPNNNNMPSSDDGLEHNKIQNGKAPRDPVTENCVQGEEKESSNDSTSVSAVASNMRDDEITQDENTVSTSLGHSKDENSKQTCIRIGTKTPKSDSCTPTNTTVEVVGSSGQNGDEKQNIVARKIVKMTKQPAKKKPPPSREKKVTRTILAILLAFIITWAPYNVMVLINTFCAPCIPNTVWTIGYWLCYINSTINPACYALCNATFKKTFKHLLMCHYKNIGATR

[14] = target: NACHT, LRR and PYD domains-containing protein 3 (Mus musculus) (UniProt Q8R4B8); assay: In vivo inhibition of NLRP3 in LPS-induced C57BL/6JRi mouse neuroinflammation model assessed as reduction in IL-1beta level in CSF at 0.2 mg/kg, po pretreated with LPS for 23 hrs followed by compound addition for 1 hr prior to second dose of LPS addition and measured after 4 hrs; format: functional, organism-based; settings: time 5.0 hrs
[15] = target: NACHT, LRR and PYD domains-containing protein 3 (Mus musculus) (UniProt Q8R4B8); assay: In vivo inhibition of NLRP3 in LPS-induced C57BL/6JRi mouse neuroinflammation model assessed as reduction in IL-1beta level in CSF at 2 mg/kg, po pretreated with LPS for 23 hrs followed by compound addition for 1 hr prior to second dose of LPS addition and measured after 4 hrs; format: functional, organism-based; settings: time 5.0 hrs
Pyrin = target: T2, Pyrin (Homo sapiens, UniProt O15553); assay: Inhibition of pyrin inflammasome activation in human U-937 cells assessed as IL-1beta secretion preincubated for 1 hr followed by BAA473 addition and measured after 4 hrs; format: cell-based
T2 sequence (O15553 whole entry): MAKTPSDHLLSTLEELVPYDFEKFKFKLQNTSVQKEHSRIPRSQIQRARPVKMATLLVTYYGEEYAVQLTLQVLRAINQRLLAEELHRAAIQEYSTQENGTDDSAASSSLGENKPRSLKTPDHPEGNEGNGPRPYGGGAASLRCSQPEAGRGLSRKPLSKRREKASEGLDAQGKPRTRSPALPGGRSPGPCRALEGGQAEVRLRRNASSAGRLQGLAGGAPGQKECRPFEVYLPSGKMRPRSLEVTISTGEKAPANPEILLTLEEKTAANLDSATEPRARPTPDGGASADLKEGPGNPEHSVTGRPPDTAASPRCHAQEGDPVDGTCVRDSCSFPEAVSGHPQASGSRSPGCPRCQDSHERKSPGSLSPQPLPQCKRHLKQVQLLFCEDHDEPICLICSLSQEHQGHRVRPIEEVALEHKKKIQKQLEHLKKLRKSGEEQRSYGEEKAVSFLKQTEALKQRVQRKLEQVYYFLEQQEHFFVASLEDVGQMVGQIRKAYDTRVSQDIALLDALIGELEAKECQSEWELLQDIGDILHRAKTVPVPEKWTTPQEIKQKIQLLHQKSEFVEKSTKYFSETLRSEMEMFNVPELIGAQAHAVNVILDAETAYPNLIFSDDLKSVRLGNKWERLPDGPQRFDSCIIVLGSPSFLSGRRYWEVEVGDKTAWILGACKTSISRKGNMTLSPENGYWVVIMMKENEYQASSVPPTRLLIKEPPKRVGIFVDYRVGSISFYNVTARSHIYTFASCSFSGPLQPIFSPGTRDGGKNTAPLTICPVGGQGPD

Chain of NACHT, LRR and PYD domains-containing protein 3 (Q8R4B8 whole entry, the tested form may be a part): as the sequence (Q8R4B8 whole entry, the tested form may be a part) above

Cc1cc(C(F)(F)F)cc(O)c1-c1ccc(N[C@@H]2CCCN(CCO)C2)nn1
IC50 [1]: 2.1 nM
inhibition [2]: 99.6%

Cc1cc(C)c(-c2ccc(N[C@@H]3CCCN(C)C3)nn2)c(O)c1
IC50 [1]: 5.8 nM
inhibition [2]: 99%

CCN1CCC[C@@H](Nc2ccc(-c3c(C)cc(C(F)(F)F)cc3O)nn2)C1
inhibition [3]: 87.7%
inhibition [4]: -2%
inhibition [5]: 94.3%
IC50 [1]: 2.5 nM
inhibition [6]: 42.5%
inhibition [7]: 16%
inhibition [8]: 43.9%
Activity [9]: Active
inhibition [2]: 99.4%
inhibition [10]: 98.3%
inhibition [11]: 99.6%
inhibition [12]: inactive
Activity [13]: Active
inhibition [14]: 51.6%
inhibition [15]: 96.5%
IC50 (Pyrin): > 33 µM

Cc1cc(C(F)(F)F)cc(O)c1-c1ccc(N[C@@H]2CCCN(C)C2)nn1
inhibition [2]: 99.5%

Source: ChEMBL document CHEMBL6074670, “Discovery of NP3-253, a Potent Brain Penetrant Inhibitor of the NLRP3 Inflammasome” (J Med Chem, 2024)
